Literature values, collected in patent publication US10058559B2, “Treatment or prevention of an intestinal disease or disorder” (The United States of America, as represented by the …, priority 2014, dated 2018).

Legend:
[1] = target: CAMKK2 (Homo sapiens, UniProt Q96RR4); conditions: 185-kinase panel; cited from earlier work
[2] = target: T1, PIP4K2C (Homo sapiens, UniProt Q8TBX8); conditions: 185-kinase panel; cited from earlier work
T1 sequence (Q8TBX8 1-421): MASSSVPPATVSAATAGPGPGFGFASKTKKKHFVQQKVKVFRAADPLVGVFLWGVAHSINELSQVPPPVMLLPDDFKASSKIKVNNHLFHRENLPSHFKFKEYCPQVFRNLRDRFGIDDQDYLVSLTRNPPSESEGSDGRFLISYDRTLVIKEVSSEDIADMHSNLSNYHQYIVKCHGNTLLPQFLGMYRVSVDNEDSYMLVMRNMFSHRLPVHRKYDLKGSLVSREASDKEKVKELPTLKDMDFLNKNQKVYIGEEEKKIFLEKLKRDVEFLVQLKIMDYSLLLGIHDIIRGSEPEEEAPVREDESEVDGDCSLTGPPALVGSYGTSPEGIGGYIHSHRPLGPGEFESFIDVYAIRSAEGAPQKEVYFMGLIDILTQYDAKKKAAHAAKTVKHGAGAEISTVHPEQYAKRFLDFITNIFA

[3] = target: T2, GAK (Homo sapiens, UniProt O14976); conditions: 185-kinase panel; cited from earlier work
T2 sequence (O14976 1-1311): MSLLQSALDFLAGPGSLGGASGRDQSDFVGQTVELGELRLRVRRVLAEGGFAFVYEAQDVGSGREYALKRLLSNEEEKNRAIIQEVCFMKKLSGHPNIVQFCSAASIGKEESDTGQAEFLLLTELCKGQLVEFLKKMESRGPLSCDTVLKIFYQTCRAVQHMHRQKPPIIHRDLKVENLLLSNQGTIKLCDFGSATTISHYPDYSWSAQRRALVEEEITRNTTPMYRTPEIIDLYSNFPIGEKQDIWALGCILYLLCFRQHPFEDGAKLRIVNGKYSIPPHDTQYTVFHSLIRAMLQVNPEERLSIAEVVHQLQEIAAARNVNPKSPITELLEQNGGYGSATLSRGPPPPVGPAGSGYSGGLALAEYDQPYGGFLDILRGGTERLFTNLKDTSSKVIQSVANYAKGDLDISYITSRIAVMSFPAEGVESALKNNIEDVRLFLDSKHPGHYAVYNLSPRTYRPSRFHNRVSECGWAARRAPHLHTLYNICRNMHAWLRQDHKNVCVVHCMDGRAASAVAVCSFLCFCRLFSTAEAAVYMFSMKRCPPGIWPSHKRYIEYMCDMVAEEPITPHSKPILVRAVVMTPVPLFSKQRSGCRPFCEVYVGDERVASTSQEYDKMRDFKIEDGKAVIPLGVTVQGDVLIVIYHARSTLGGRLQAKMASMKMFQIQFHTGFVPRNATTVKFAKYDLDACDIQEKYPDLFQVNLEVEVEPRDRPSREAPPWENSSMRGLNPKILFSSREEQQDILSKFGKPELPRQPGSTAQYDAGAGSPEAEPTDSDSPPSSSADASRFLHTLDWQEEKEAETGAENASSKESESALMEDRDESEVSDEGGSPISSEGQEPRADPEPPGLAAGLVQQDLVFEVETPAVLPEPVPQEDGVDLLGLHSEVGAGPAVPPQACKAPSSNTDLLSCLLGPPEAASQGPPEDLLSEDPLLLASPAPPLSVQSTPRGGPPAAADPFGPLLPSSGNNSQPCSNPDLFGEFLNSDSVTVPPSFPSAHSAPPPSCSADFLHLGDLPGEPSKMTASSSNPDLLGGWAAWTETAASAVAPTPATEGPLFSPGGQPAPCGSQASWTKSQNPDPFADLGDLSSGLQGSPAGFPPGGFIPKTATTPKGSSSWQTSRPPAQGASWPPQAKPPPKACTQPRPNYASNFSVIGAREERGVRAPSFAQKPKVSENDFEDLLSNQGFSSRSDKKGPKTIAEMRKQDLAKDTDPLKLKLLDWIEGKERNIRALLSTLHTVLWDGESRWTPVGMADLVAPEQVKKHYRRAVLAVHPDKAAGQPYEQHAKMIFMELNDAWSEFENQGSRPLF

[4] = target: T3, PLK4 (Homo sapiens, UniProt O00444); conditions: 185-kinase panel; cited from earlier work
T3 sequence (O00444 1-970): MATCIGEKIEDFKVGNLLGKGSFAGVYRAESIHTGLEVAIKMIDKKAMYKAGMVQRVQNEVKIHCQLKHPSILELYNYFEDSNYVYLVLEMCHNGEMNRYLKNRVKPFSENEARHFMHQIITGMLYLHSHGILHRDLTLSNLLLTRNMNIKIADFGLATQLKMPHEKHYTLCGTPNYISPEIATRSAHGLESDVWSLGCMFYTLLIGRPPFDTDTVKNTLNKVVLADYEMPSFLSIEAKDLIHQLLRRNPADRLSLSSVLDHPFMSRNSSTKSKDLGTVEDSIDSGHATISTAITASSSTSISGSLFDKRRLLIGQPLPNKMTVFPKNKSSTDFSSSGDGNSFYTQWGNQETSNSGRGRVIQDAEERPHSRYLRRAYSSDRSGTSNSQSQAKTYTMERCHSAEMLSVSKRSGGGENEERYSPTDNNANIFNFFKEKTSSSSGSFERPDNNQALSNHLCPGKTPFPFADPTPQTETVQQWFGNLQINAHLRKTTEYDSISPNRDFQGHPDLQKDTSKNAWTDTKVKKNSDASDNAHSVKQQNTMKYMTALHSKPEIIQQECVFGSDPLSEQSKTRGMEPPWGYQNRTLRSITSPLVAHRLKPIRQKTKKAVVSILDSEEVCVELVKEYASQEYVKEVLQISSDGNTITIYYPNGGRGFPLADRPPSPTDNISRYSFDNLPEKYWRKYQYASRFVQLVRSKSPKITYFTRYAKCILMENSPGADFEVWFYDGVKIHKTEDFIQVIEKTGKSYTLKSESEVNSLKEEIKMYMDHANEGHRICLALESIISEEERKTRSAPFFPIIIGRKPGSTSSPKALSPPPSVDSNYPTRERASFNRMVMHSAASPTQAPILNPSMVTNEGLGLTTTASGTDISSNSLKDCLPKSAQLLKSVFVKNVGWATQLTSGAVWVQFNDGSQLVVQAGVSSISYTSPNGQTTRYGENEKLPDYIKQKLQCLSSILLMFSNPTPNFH

[5] = in vivo; cited from earlier work
[6] = target: T4, TNK1 (Homo sapiens, UniProt Q13470); conditions: 185-kinase panel; cited from earlier work
T4 sequence (Q13470 1-666): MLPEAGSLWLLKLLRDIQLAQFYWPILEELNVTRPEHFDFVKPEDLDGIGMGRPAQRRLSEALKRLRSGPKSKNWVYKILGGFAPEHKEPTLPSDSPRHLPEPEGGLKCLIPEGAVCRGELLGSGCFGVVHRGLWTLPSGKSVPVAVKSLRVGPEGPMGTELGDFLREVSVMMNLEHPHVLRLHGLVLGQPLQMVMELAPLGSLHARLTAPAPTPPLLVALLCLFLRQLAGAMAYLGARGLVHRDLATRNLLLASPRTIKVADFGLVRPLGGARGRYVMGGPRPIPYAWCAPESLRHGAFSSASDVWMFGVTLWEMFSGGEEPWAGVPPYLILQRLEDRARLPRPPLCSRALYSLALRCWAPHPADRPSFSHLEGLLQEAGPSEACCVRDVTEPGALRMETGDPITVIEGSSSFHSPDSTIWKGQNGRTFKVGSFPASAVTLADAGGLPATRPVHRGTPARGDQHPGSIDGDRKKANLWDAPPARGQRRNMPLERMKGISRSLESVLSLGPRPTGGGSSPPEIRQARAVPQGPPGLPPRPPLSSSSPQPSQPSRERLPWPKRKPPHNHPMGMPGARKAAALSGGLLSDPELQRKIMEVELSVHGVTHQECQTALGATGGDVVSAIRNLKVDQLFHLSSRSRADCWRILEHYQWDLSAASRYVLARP

Chain of CAMKK2 (Q96RR4 whole entry, species assumed): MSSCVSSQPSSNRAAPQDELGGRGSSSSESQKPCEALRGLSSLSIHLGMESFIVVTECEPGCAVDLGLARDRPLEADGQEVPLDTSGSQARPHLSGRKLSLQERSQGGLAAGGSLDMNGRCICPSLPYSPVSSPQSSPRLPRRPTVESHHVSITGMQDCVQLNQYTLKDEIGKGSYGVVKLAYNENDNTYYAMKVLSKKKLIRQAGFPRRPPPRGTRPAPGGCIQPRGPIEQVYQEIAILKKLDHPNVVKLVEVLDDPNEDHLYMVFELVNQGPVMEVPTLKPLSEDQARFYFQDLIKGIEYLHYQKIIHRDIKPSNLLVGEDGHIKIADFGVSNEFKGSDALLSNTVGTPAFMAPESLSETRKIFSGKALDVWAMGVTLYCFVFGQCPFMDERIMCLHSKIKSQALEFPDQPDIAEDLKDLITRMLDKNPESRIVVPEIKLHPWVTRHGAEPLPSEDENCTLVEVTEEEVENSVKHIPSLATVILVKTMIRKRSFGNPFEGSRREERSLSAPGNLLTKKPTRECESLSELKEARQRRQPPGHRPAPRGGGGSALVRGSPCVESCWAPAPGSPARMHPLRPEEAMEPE

With `COc1cc(N2CCOCC2)ccc1Nc1ncc(F)c(Nc2ccccc2NS(C)(=O)=O)n1.Cl` [CZC-25146, N-(2-(5-Fluoro-2-(2-methoxy-4-morpholinophenylamino)pyrimidin-4-ylamino)phenyl)methanesulfonamide, HCl] as the compound, how does the IC50 [1] read?
Its IC50 is less than 300 nM.

What about the IC50 [2] of the same compound?
Its IC50 is less than 300 nM.

And the IC50 [3]?
The IC50 was less than 300 nM.

What about the IC50 [4] of the same compound?
Its IC50 is less than 300 nM.

What about the oral bioavailability [5] of the same compound?
The oral bioavailability was “orally bioavailable”.

And the IC50 [6]?
The IC50 was less than 300 nM.
